Assay in all cases: Evaluation test for disinfecting effect, broth dilution method CLSI(M7-A7)2006
Common to all, as to type: cell-based

Experiment [1] concerns Escherichia coli ATCC 25922. From the text: (§1) The following test compounds were examined for the disinfecting activities against Pseudomonas aeruginosa, E.. Coli and staphylococcus aureus, according to a broth dilution method of "CLSI(M7-A7)2006" (Clinical and Laboratory Standards Institute, M7-A7, Methods for Dilution Antimicrobial Susceptibility Tests for Bacteria That Grow Aerobically; Approved Standard-Seventh Edition, 2006),
(§2) • Pseudomonas aeruginosa PAO1 • Pseudomonas aeruginosa ATCC 27853 • Escherichia coli ATCC 25922 • Staphylococcus aureus ATCC 29213 • Staphylococcus aureus Methicillin resistant (MRSA) ATCC 43300
(§3) Each of above-mentioned bacteria was inoculated in a TSB culture medium (Bacto TSB Broth, product of BD) for overnight cultivation at 37°C. The culture solution was applied to a TSB agar plate for about a 20-hour cultivation to form colonies. Three to five colonies were taken from the agar plate, and an average colony of them was inoculated in a 4mL TSB culture medium.. The colony was cultivated at 35°C until the number of microorganisms became 1 × 10^8 to 2 x 10^8 CFU/mL. The number of microorganisms with time was found by measuring changes in absorbency at 590nm of culture solution with time. When the turbidity became equivalent to 0.5 McFarland standard, it was determined that the number of microorganisms reached the target level = 1 × 10^8 to 2 × 10^8 CFU/mL.
(§4) The bacillus culture solution thus obtained was diluted 10-fold within 15 minutes, and a 5µL portion was inoculated in each well of an evaluation 96-well microplate. This 96-well microplate was a sterilized 96-well microplate with U-shaped bottoms (Falcon 35-3918: product of BD), and each well was filled with a 100µL portion of MH culture medium (BBL MH Broth: product of BD). Within 15 minutes after inoculation of the bacillus culture solutions, the test compounds were supplied to the well in a manner of 2-fold graded dilution. The cultivation was then carried out at 37°C for 18 hours.
(§5) The MIC was determined as follows. "S (susceptible)" indicates a concentration which caused 80% or more reduction in the diameter of the aggregation deposited in the bottom of the well, compared to when the test liquid is not used. "R (Resistant)" indicates a concentration that caused less than 80% reduction in diameter. The reduction was measured visually.. "I(Intermediate)" indicates a concentration that cannot be measured visually

The test system of experiment [2] is Pseudomonas aeruginosa PAO1.
From the text: as §1, §2, §3, §4, §5

Experiment [3] deals with Staphylococcus aureus Methicillin resistant (MRSA) ATCC 43300.
From the text: as §1, §2, §3, §4, §5

For experiment [4], the system named is Pseudomonas aeruginosa ATCC 27853.
From the text: as §1, §2, §3, §4, §5

The test system of experiment [5] is Staphylococcus aureus ATCC 29213.
From the text: as §1, §2, §3, §4, §5

Setting [6] is: ATCC25922, 18 h, read-out: MIC (µg/mL) R.
Where [7] appears, read: ATCC25922, 18 h, read-out: MIC (µg/mL) S.
The mark [8] stands for this setting: PAO1, 18 h, read-out: MIC (µg/mL) I.
Where [9] appears, read: PAO1, 18 h, read-out: MIC (µg/mL) R.
Setting [10] is: PAO1, 18 h, read-out: MIC (µg/mL) S.
The mark [11] stands for this setting: ATCC27853, 18 h, read-out: MIC (µg/mL) I.
Setting [12] is: ATCC27853, 18 h, read-out: MIC (µg/mL) R.
The mark [13] stands for this setting: ATCC27853, 18 h, read-out: MIC (µg/mL) S.
[14] abbreviates: ATCC29213, 18 h, read-out: MIC (µg/mL) I.
Where [15] appears, read: ATCC29213, 18 h, read-out: MIC (µg/mL) R.
The mark [16] stands for this setting: ATCC29213, 18 h, read-out: MIC (µg/mL) S.

≈ marks a conversion by molar mass, not a printed value. Where a name gives a salt, the structure may show the parent alone. Read-outs that look alike come from different tables or passages of the source.

As for `CC1(C)S[C@@H]2[C@H](NC(=O)C(C(=O)O)c3ccccc3)C(=O)N2[C@H]1C(=O)O` (some centres unmarked) [CBPC, Carbenicillin], the MIC was 16 µg/mL (≈ 42.3 µM) in experiment [1] (ATCC25922, I (Intermediate): concentration that cannot be measured visually, 37°C, 18 hours, read-out: MIC (µg/mL) I); not above 8 µg/mL in experiment [1] (ATCC25922, R (Resistant): concentration that caused less than 80% reduction in diameter of the aggregation, 37°C, 18 hours, read-out: MIC (µg/mL) R); not below 32 µg/mL in experiment [1] (ATCC25922, S (susceptible): concentration which caused 80% or more reduction in diameter of the aggregation, 37°C, 18 hours, read-out: MIC (µg/mL) S); not above 64 µg/mL in experiment [2] (PAO1, R (Resistant): concentration that caused less than 80% reduction in diameter of the aggregation, 37°C, 18 hours, read-out: MIC (µg/mL) R); not below 128 µg/mL in experiment [2] (PAO1, S (susceptible): concentration which caused 80% or more reduction in diameter of the aggregation, 37°C, 18 hours, read-out: MIC (µg/mL) S); 32 µg/mL (≈ 84.6 µM) in experiment [3] (I (Intermediate): concentration that cannot be measured visually, 37°C, 18 hours, read-out: MIC (µg/mL) I). Further, the MIC is not above 16 µg/mL in experiment [3] (R (Resistant): concentration that caused less than 80% reduction in diameter of the aggregation, 37°C, 18 hours, read-out: MIC (µg/mL) R); not below 64 µg/mL in experiment [3] (S (susceptible): concentration which caused 80% or more reduction in diameter of the aggregation, 37°C, 18 hours, read-out: MIC (µg/mL) S); 128 µg/mL (≈ 338 µM) in experiment [4] (ATCC27853, I (Intermediate): concentration that cannot be measured visually, 37°C, 18 hours, read-out: MIC (µg/mL) I); not above 64 µg/mL in experiment [4] (ATCC27853, R (Resistant): concentration that caused less than 80% reduction in diameter of the aggregation, 37°C, 18 hours, read-out: MIC (µg/mL) R); not below 256 µg/mL in experiment [4] (ATCC27853, S (susceptible): concentration which caused 80% or more reduction in diameter of the aggregation, 37°C, 18 hours, read-out: MIC (µg/mL) S); not above 8 µg/mL in experiment [5] (ATCC29213, R (Resistant): concentration that caused less than 80% reduction in diameter of the aggregation, 37°C, 18 hours, read-out: MIC (µg/mL) R). For the same molecule, in experiment [5] (ATCC29213, S (susceptible): concentration which caused 80% or more reduction in diameter of the aggregation, 37°C, 18 hours, read-out: MIC (µg/mL) S), the MIC is not below 16 µg/mL.

As for `CCCCCCCCCCCC(=O)NC1CCNC1` (centres unmarked) [Hydrochloride salt of Compound 1a-1, N-(pyrrolidin-3-yl) dodecanoyl amide], the MIC in experiment [1] (ATCC25922, 18 h, read-out: MIC (µg/mL) I) was 8 µg/mL; in experiment [1] (setting [6]), not above 4 µg/mL; in experiment [1] (setting [7]), not below 16 µg/mL; in experiment [2] (setting [8]) it was 64 µg/mL; in experiment [2] (setting [9]) it was not above 32 µg/mL; in experiment [2] (setting [10]) it was not below 128 µg/mL. Besides, the MIC in experiment [3] (18 h, read-out: MIC (µg/mL) I) was 8 µg/mL; in experiment [3] (18 h, read-out: MIC (µg/mL) R), not above 4 µg/mL; in experiment [3] (18 h, read-out: MIC (µg/mL) S), not below 16 µg/mL; in experiment [4] (setting [11]), 64 µg/mL; in experiment [4] (setting [12]), not above 32 µg/mL; in experiment [4] (setting [13]) it was not below 128 µg/mL. The MIC in experiment [5] (setting [14]) is 8 µg/mL; in experiment [5] (setting [15]), not above 4 µg/mL; in experiment [5] (setting [16]) it was not below 16 µg/mL.

Take `CCCCCCCCCC(=O)NC1CCNC1` (centres unmarked) [Hydrochloride salt of Compound 1a-2, N-(pyrrolidin-3-yl) decanoyl amide]: the MIC in experiment [1] (setting [6]) is not above 128 µg/mL; in experiment [1] (setting [7]) it was not below 256 µg/mL; in experiment [2] (setting [9]) it was not above 512 µg/mL; in experiment [2] (setting [10]) it was not below 1020 µg/mL; in experiment [3] (18 h, read-out: MIC (µg/mL) R), not above 128 µg/mL; in experiment [3] (18 h, read-out: MIC (µg/mL) S), not below 256 µg/mL. For the same molecule, the MIC in experiment [4] (setting [12]) is not above 512 µg/mL; in experiment [4] (setting [13]), not below 1020 µg/mL; in experiment [5] (setting [15]), not above 128 µg/mL; in experiment [5] (setting [16]) it was not below 256 µg/mL.

In the case of `CCCCCCCCCCCC(=O)NC1CCNCC1` [Hydrochloride salt of Compound 1b-1, N-(piperidin-4-yl) dodecanoyl amide], the MIC in experiment [1] (setting [6]) is not above 8 µg/mL; in experiment [1] (setting [7]), not below 16 µg/mL; in experiment [2] (setting [8]) it was 64 µg/mL; in experiment [2] (setting [9]), not above 32 µg/mL; in experiment [2] (setting [10]), not below 128 µg/mL; in experiment [3] (18 h, read-out: MIC (µg/mL) I), 8 µg/mL. Moreover, the MIC in experiment [3] (18 h, read-out: MIC (µg/mL) R) is not above 4 µg/mL; in experiment [3] (18 h, read-out: MIC (µg/mL) S), not below 16 µg/mL; in experiment [4] (setting [11]) it was 64 µg/mL; in experiment [4] (setting [12]), not above 32 µg/mL; in experiment [4] (setting [13]), not below 128 µg/mL; in experiment [5] (setting [14]) it was 8 µg/mL. The MIC is not above 4 µg/mL in experiment [5] (setting [15]) and not below 16 µg/mL in experiment [5] (setting [16]).

In the case of `CCCCCCCCCC(=O)NC1CCNCC1` [Hydrochloride salt of Compound 1b-2, N-(piperidin-4-yl) decanoyl amide], the MIC was not above 128 µg/mL in experiment [1] (setting [6]); not below 256 µg/mL in experiment [1] (setting [7]); not above 512 µg/mL in experiment [2] (setting [9]); not below 1020 µg/mL in experiment [2] (setting [10]); not above 128 µg/mL in experiment [3] (18 h, read-out: MIC (µg/mL) R); not below 256 µg/mL in experiment [3] (18 h, read-out: MIC (µg/mL) S). In addition, the MIC was not above 512 µg/mL in experiment [4] (setting [12]), not below 1020 µg/mL in experiment [4] (setting [13]), not above 128 µg/mL in experiment [5] (setting [15]) and not below 256 µg/mL in experiment [5] (setting [16]).

The record behind these values is patent EP2077260B1, “AMIDE COMPOUND OR SALT THEREOF, AND BIOFILM FORMATION INHIBITOR, BIOFILM REMOVER AND BACTERICIDE EACH USING THE AMIDE COMPOUND OR SALT THEREOF” (The University of Tokyo, priority 2006, dated 2008).
